Several values for one entry are separate records, joined by “and”; a condition that tells them apart may be missing. Equal values may be shown once. Read-outs that look alike come from different tables or passages of the source.
T1: HsaGST A3-3 (Homo sapiens, UniProt Q16772)
T1 construct: made in house
T1 sequence (Q16772 1-222): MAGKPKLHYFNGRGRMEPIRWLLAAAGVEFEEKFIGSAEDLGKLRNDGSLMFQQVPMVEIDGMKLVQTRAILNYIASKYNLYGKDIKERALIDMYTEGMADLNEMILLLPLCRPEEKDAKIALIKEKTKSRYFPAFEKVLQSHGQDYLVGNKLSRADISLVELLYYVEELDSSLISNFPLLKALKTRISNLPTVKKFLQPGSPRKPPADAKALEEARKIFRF

T2: HsaGST M2-2 (Homo sapiens, UniProt P28161)
T2 construct: made in house
T2 sequence (P28161 1-218): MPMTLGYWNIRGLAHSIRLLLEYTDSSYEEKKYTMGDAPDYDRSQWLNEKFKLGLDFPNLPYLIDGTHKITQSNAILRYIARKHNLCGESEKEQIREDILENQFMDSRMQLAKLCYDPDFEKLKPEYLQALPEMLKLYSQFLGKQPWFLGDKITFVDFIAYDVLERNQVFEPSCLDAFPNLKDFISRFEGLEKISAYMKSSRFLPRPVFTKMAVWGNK


Legend:
HsaGST S1-1 = test system: HsaGST S1-1; design: method as in PMID 25603235; details: 1 mM GSH, 1 mM CDNB, pH 6.5, 30°C, cited from earlier work; for Inhibition (%) of HsaGST S1-1: 10 μM inhibitor; for IC50: CDNB activity
HsaGST A3-3 [1] = molecular target: T1, HsaGST A3-3; assay: Inhibition of HsaGST A3-3 CDNB activity; format: biochemical; details: for Inhibition (%) of HsaGST A3-3: 10 μM inhibitor
Description: (§1) EcaGST A3-3 [10], HsaGST A3-3 [12] and HsaGST M2-2 [13] were cloned, expressed and purified as described previously. Protein concentration was determined by means of the Bradford assay.
(§2) The conjugation of GSH with the electrophilic substrate CDNB was used as a biochemical assay for general activity measurements. Screening of the US Drug library for inhibition was done in triplicates in 96-well plates in a Thermo Scientific Multiskan GO spectrophotometer. The conjugation activity at 30°C was monitored at 340 nm for 1 min in 0.1 M sodium phosphate buffer at pH 6.5 and 10 μM inhibitor concentration in a final volume of 300 μL. Initial concentrations of GSH and CDNB were 1 mM.
(§3) For understanding the effects of pharmacological interventions based on GST inhibitors, it is important to know the selectivity among the numerous GSTs. […] All values were determined with CDNB, which is a common substrate for all the enzymes.

EcaGST A3-3 [2] = molecular target: T3, EcaGST A3-3 (Equus caballus, UniProt M9ZT87); assay: Inhibition of EcaGST A3-3 activity, GSH conjugation with CDNB; format: biochemical, Equus ferus caballus; details: for Inhibition (%) of EcaGST A3-3: 10 μM inhibitor, sodium phosphate pH 6.5, 30°C; for inhibition at 10 µM: pH 6.5, read-out: Inhibition (%) of EcaGST A3-3, 10 μM inhibitor, 1 mM GSH, 1 mM CDNB, sodium phosphate pH 6.5, 30°C
Description: The final solvent concentration in the reaction system was kept at 5% (v/v) as a maximum.
as §2
Assay conditions for inhibition measurements of enzyme activity with CDNB were the following: EcaGST A3-3 15 nM, initial concentrations of GSH and CDNB 1 mM, inhibitor concentrations varying from 0.029 μM to 15 μM, in 100 mM Na2HPO4/NaH2PO4 at pH 6.5.
The reactions were followed spectrophotometrically for 1 min at 30°C using a Shimadzu UV-2501 PC spectrophotometer (Shimadzu Inc.). All experiments included triplicate measurements in each data point.
The equation for competitive inhibition fitted by non-linear regression was v=Vmax[S]/KM(1+[I]/Ki)+[S] where [S] is the substrate concentrations and [I] is the inhibitor concentration.

HsaGST A3-3 [3] = molecular target: T1, HsaGST A3-3; design: method as in PMID 23769903; details: CDNB activity, 1 mM GSH, 1 mM CDNB, pH 6.5, 30°C; read-out: IC50 HsaGST A3-3 (published); cited from earlier work
HsaGST M2-2 = molecular target: T2, HsaGST M2-2; assay: Inhibition of HsaGST M2-2 CDNB activity; format: biochemical
Description: as §1, §2, §3

HsaGST P1-1 = test system: HsaGST P1-1; design: method as in PMID 23769903; details: 1 mM GSH, 1 mM CDNB, pH 6.5, 30°C, cited from earlier work; for Inhibition (%) of HsaGST P1-1: 3.3 μM inhibitor; for IC50: CDNB activity
EcaGST A3-3 [4] = molecular target: T3, EcaGST A3-3; assay: Inhibition of EcaGST A3-3 steroid double-bond isomerase activity with Δ^5-AD; format: biochemical, Equus ferus caballus
[5] = substrate: CC12CCC3C(CC=C4CC(=O)CCC43C)C1CCC2=O; assay: purified protein, by the assay type; details: other: 1 mM GSH, fitted with and without anthralin; 30.0 °C
[6] = pH 6.5, 10 μM inhibitor, 1 mM GSH, 1 mM CDNB, pH 6.5, 30°C, read-out: Inhibition (%) of HsaGST A3-3
[7] = 1 mM CDNB, 1 mM GSH, 100 mM sodium phosphate pH 6.5, 30°C, read-out: IC50 EcaGST A3-3, substrate CDNB
[8] = 10 μM inhibitor, 1 mM GSH, 1 mM CDNB, pH 6.5, 30°C, read-out: Inhibition (%) of HsaGST M2-2
[9] = 1 mM GSH, 1 mM CDNB, pH 6.5, 30°C
[10] = 10 μM inhibitor, 1 mM GSH, 1 mM CDNB, pH 6.5, 30°C
[11] = 0.1 mM Δ^5-AD, 1 mM GSH, 25 mM sodium phosphate pH 8.0, 30°C

Molecule	Inhibition (%) of HsaGST S1-1 (HsaGST S1-1) [%]	IC50 (HsaGST S1-1) [µM]	inhibition at 10 µM (HsaGST A3-3 [1]; [6]) [%]	Inhibition (%) of EcaGST A3-3 (EcaGST A3-3 [2]; 1 mM GSH, 1 mM CDNB) [%]	IC50 (EcaGST A3-3 [2]; [7]) [nM]	IC50 (HsaGST A3-3 [3]) [nM]	inhibition at 10 µM (HsaGST M2-2; [8]) [%]	Inhibition (%) of HsaGST P1-1 (HsaGST P1-1) [%]	IC50 (EcaGST A3-3 [4]) [nM]	Inhibition (%) of HsaGST A3-3 (HsaGST A3-3 [1]; [9]) [%]	IC50 (EcaGST A3-3 [2]) [nM]	inhibition at 10 µM (EcaGST A3-3 [2]) [%]	Inhibition (%) of HsaGST M2-2 (HsaGST M2-2; [10])	IC50 (HsaGST P1-1) [µM]	IC50 EcaGST A3-3, substrate Δ^5-AD (EcaGST A3-3 [4]; [11])	further results
Oc1c(Cl)cc(Cl)cc1Sc1cc(Cl)cc(Cl)c1O [Bithionate sodium]	47	12	47	64 ± 22	1900 ± 520	700	73	10	1600 ± 310							
C=C(CC)C(=O)c1ccc(OCC(=O)O)c(Cl)c1Cl [Ethacrynic acid]	32	44	94 to 100	100		400	0	25	250 ± 100	94	180 ± 67	94 to 100	low or negligible effects	4.9	submicromolar range	Inhibition (%) of HsaGST S1-1 (HsaGST S1-1; listed as ethacrynic acid): low or negligible effects; Inhibition modality, substrate CDNB (EcaGST A3-3 [2]; CDNB varied, 1 mM GSH): Competitive; Ki (EcaGST A3-3 [2]; Ki, EcaGST A3-3, substrate CDNB, CDNB varied, 1 mM GSH, 0.25 μM inhibitor): 140 nM and 141 nM; Hill coefficient, CDNB inhibition (EcaGST A3-3 [2]; dose-response curve, substrate CDNB, mean ± SD): 2.5±0.21; Inhibition (%) of HsaGST P1-1 (HsaGST P1-1; listed as ethacrynic acid): low or negligible effects; Hill coefficient, Δ^5-AD inhibition (EcaGST A3-3 [4]; dose-response curve, substrate Δ^5-AD, mean ± SD): 1.0
Oc1c(Cl)cc(Cl)c(Cl)c1Cc1c(O)c(Cl)cc(Cl)c1Cl [Hexachlorophene]	61	8.9				160		34	440 ± 220		320 ± 36	96 ± 1.1		9.7		inhibition at 10 µM (HsaGST A3-3 [1]; pH 6.5, read-out: Inhibition (%) of HsaGST A3-3): 89%; IC50 (HsaGST M2-2): 1.5 µM; inhibition at 10 µM (HsaGST M2-2; pH 6.5, read-out: Inhibition (%) of HsaGST M2-2): 98%
O=C([O-])c1ccccc1-c1c2cc(Br)c(=O)cc-2oc2[c]([Hg+])c([O-])c(Br)cc12.[Na+].[Na+].[OH-] [Merbromin]	85	3.3		95 ± 18	2600 ± 630	660		44		98			85%	3.1		IC50 (HsaGST M2-2; CDNB activity, 1 mM GSH, 1 mM CDNB, pH 6.5, 30°C, read-out: IC50 HsaGST M2-2): 4.9 µM; IC50 (EcaGST A3-3 [4]; read-out: IC50 EcaGST A3-3, substrate Δ^5-AD, 0.1 mM Δ^5-AD, 1 mM GSH, 25 mM sodium phosphate pH 8.0, 30°C): 2500 ± 480 nM
Chlorophyllide Cu-complex Na salt	100	1.7		98 ±2.2	2100 ± 270	330		51		84			100%	2.3	Anomalous curve	
EcaGST A3-3 (Equus caballus) (protein) MAVKPMLHYFNGRGRMEPIRWLLAAAGVEFEETFIDTPEDFEKLKNDGSLMFQQVPMVEIDGMKLVQSRAILNYVAAKHNLYGKDIKERALIDMYIEGVADLNEMILLLPITPPAEKDAKIMLIKDRTTNRYLPAFEKVLKSHGEDYLVGNRLSRADIHLVELLYLVEELDPSLLTNFPLLKALKARISNLPTVKKFLQPGGARKPPGDEKSVEKSRKIFKF																Km [5]: 10.8 ± 0.46 µM
